# Like-named read-outs stand apart in the source and are kept apart here.
# Tests used:
# [1] = system: standard laboratory SEPTTR isolate (SI SEPTTR); Mycosphaerella graminicola; Anamorph: Septoria tritici; test: Leaf blotch of wheat fungicidal activity, Type A assay (technical grade in acetone/water with Triton X-100, booth sprayer), standard laboratory isolate; format: in vivo, Mycosphaerella graminicola on wheat plants (variety Yuma); details: Zymoseptoria tritici, 24 h, 1 Day Protectant, wheat seedlings (Yuma), read-out: Disease control, SI SEPTTR Type A Assay (50 ppm) 1DP
# Protocol: (§1) Evaluation of Fungicidal Activity: Leaf Blotch of Wheat (Mycosphaerella graminicola; Anamorph: Septoria tritici; Bayer code SEPTTR):
# (§2) For Type A assays, technical grades of the experimental fungicides in Table 4 below were dissolved in acetone, and then mixed with nine volumes of water containing 110 ppm Triton X-100. The fungicide solutions were applied onto wheat seedlings using an automated booth sprayer. For Type B assays, emulsifiable concentrate (EC) formulations of technical grades of experimental fungicides in Table 4 below were prepared at 10% (w/v), and then mixed with 150 volumes of 0.1% Trycol 5941. The fungicide solutions were applied onto wheat seedlings using an automated track sprayer at 200 L/ha. All sprayed plants were allowed to air dry prior to further handling.
# (§3) Wheat plants (variety Yuma) were grown from seed in a greenhouse in 50% mineral soil/50% soil-less Metro mix until the first leaf was fully emerged, with 7-10 seedlings per pot. Prior to or after application of experimental fungicides, plants were inoculated either with spores of a standard laboratory SEPTTR isolate (SI SEPTTR) or with spores from a SEPTTR field isolate collected from Wellsbourne, England in 2012 (FI SEPTTR). After inoculation, the plants were kept for 3 days at 20° C. in 100% relative humidity (one day in a dark dew chamber followed by two days in a lighted dew chamber). Plants were then transferred to a 20° C. greenhouse for disease development. When disease symptoms were fully expressed on untreated plants, infection levels on treated plants were assessed on a scale of 0 to 100 percent disease severity. Percent disease control was calculated using the ratio of disease severity on treated plants relative to untreated plants.
# [2] = Leaf blotch of wheat fungicidal activity, Type B assay (10% EC formulation in 0.1% Trycol 5941, track sprayer 200 L/ha), field isolate; format: in vivo, Mycosphaerella graminicola on wheat plants (variety Yuma); details: Zymoseptoria tritici, 72 h, field isolate (Wellsbourne, England 2012), wheat seedlings (Yuma)
# Protocol: as §1, §2, §3
# [3] = 3 Day Curative, read-out: Disease control, FI SEPTTR Type B Assay (100 g/ha) 3DC
# [4] = 3 Day Protectant, read-out: Disease control, FI SEPTTR Type B Assay (100 g/ha) 3DP
SMILES,pest or weed control at 50 ppm [1],"pest or weed control at 100 g/ha [2, 3]","pest or weed control at 100 g/ha [2, 4]"
CC(C)(C)C(O)(c1ccc(-c2ccccc2)cc1)c1cncnc1 (stereo not shown) [Compound 5],80 to 100%,–,–
CC(C)(C)C(O)(c1ccc(-c2ccc(C(F)(F)F)cc2)cc1)c1cncnc1 (stereo not shown) [Compound 6],80 to 100%,–,–
CC(C)(C)C(O)(c1cccnc1)c1ccc(-c2ccc(OC(F)(F)F)cc2)cc1Cl (stereo not shown) [Compound 64],–,80 to 100%,80 to 100%
CC(C)(C)C(O)(c1cccnc1)c1ccc(-c2ccc(SC(F)(F)F)cc2)cc1Cl (stereo not shown) [Compound 65],–,80 to 100%,80 to 100%
CC(C)(C)C(O)(c1cccnc1)c1ccc(-c2ccc(OC(F)F)cc2)cc1Cl (stereo not shown) [Compound 66],–,< 40%,80 to 100%
CC(C)(C)C(O)(c1cccnc1)c1ccc(-c2ccc(OCC(F)(F)F)cc2)cc1Cl (stereo not shown) [Compound 67],–,80 to 100%,80 to 100%
CC(C)(C)C(O)(c1cccnc1)c1ccc(-c2ccc(C#N)cc2)cc1Cl (stereo not shown) [Compound 68],–,60 to 79%,80 to 100%
CC(C)(C)C(O)(c1cccnc1)c1ccc(-c2ccc(CC#N)cc2)cc1Cl (stereo not shown) [Compound 69],–,40 to 59%,80 to 100%
CC(C)(C)C(O)(c1cccnc1)c1ccc(-c2ccc(C3(C#N)CC3)cc2)cc1Cl (stereo not shown) [Compound 70],–,80 to 100%,80 to 100%
CC(C)(C#N)c1ccc(-c2ccc(C(O)(c3cccnc3)C(C)(C)C)c(Cl)c2)cc1 (stereo not shown) [Compound 71],–,80 to 100%,80 to 100%
CC(C)(C)c1ccc(-c2ccc(C(O)(c3cccnc3)C(C)(C)C)c(Cl)c2)cc1 (stereo not shown) [Compound 72],–,60 to 79%,80 to 100%
Cc1cc(OC(F)(F)F)ccc1-c1ccc(C(O)(c2cccnc2)C(C)(C)C)c(Cl)c1 (stereo not shown) [Compound 73],–,40 to 59%,80 to 100%
Cc1cc(OC(F)(F)F)ccc1-c1ccc(C(O)(c2cncnc2)C(C)(C)C)c(F)c1 (stereo not shown) [Compound 74],–,80 to 100%,80 to 100%
CC(C)(C)C(O)(c1cncnc1)c1ccc(-c2ccc(C3(C#N)CC3)cc2)cc1F (stereo not shown) [Compound 75],–,80 to 100%,80 to 100%
CC(C)(C)C(O)(c1cncnc1)c1ccc(-c2ccc(OCC(F)(F)F)nc2)cc1F (stereo not shown) [Compound 76],–,80 to 100%,60 to 79%
CC(C)(C#N)c1ccc(-c2ccc(C(O)(c3cncnc3)C(C)(C)C)c(F)c2)cc1 (stereo not shown) [Compound 77],–,80 to 100%,80 to 100%
CC(C)(C)C(O)(c1cncnc1)c1ccc(-c2ccc(OC(F)(F)F)cc2F)cc1F (stereo not shown) [Compound 78],–,80 to 100%,80 to 100%
"COC(c1cncnc1)(c1ccc(-c2ccc(OC(F)(F)F)cc2)cc1F)C(C)(C)C (stereo not shown) [Compound 79, 5-(1-(3-fluoro-4′-(trifluoromethoxy)-[1,1′-biphenyl]-4-yl)-1-methoxy-2,2-dimethylpropyl)pyrimidine]",–,80 to 100%,80 to 100%
COC(c1cncnc1)(c1ccc(-c2ccc(OC(F)(F)F)cc2C)cc1F)C(C)(C)C (stereo not shown) [Compound 80],–,80 to 100%,80 to 100%
COC(c1cncnc1)(c1ccc(-c2ccc(OC(F)(F)F)cc2F)cc1F)C(C)(C)C (stereo not shown) [Compound 81],–,80 to 100%,80 to 100%
COC(c1cncnc1)(c1ccc(-c2ccc(OCC(F)(F)F)nc2)cc1F)C(C)(C)C (stereo not shown) [Compound 82],–,80 to 100%,80 to 100%

SMILES,pest or weed control at 50 ppm [1],"pest or weed control at 100 g/ha [2, 3]","pest or weed control at 100 g/ha [2, 4]"
COC(c1cncnc1)(c1ccc(-c2ccc(OCC(F)(F)F)cc2)cc1F)C(C)(C)C (stereo not shown) [Compound 83],–,80 to 100%,80 to 100%
COC(c1cncnc1)(c1ccc(-c2ccc(C3(C#N)CC3)cc2)cc1F)C(C)(C)C (stereo not shown) [Compound 84],–,80 to 100%,80 to 100%
COC(c1cncnc1)(c1ccc(-c2ccc(C(C)(C)C#N)cc2)cc1F)C(C)(C)C (stereo not shown) [Compound 85],–,80 to 100%,80 to 100%
CC(C)(C#N)c1ccc(-c2ccc(C(O)(c3cncnc3)C(C)(C)C)c(Cl)c2)cc1 (stereo not shown) [Compound 86],–,60 to 79%,80 to 100%
COc1ncncc1C(O)(c1ccc(-c2ccc(OCC(F)(F)F)nc2)cc1F)C(C)(C)C (stereo not shown) [Compound 87],–,80 to 100%,80 to 100%
COc1ncncc1C(O)(c1ccc(-c2ccc(OC(F)(F)F)cc2C)cc1F)C(C)(C)C (stereo not shown) [Compound 88],–,80 to 100%,80 to 100%
CC(C)(C)C(O)(c1cncnc1)c1ccc(-c2ccc(C3(C#N)CC3)cc2)cc1Cl (stereo not shown) [Compound 89],–,60 to 79%,80 to 100%
Cc1cc(-c2ccc(C(C)(C)C#N)cc2F)ccc1C(O)(c1cncnc1)C(C)(C)C (stereo not shown) [Compound 91],–,80 to 100%,80 to 100%
COc1ncncc1C(O)(c1ccc(-c2ccc(C(C)(C)C#N)cc2)cc1F)C(C)(C)C (stereo not shown) [Compound 92],–,80 to 100%,80 to 100%
"Cc1cc(-c2ccc(OC(F)(F)F)cn2)ccc1C(O)(c1cncnc1)C(C)(C)C (stereo not shown) [Compound 94, 2,2-dimethyl-1-(2-methyl-4-(5-(trifluoromethoxy)pyridin-2-yl)phenyl)-1-(pyrimidin-5-yl)propan-1-ol]",–,80 to 100%,80 to 100%
CC(C)(C#N)c1ccc(-c2ccc(C(O)(c3cncnc3)C(C)(C)C)c(Cl)c2)c(F)c1 (stereo not shown) [Compound 95],–,80 to 100%,80 to 100%
COc1ncncc1C(O)(c1ccc(-c2ccc(OC(F)(F)F)cc2)cc1F)C(C)(C)C (stereo not shown) [Compound 96],–,80 to 100%,80 to 100%
CC(C)(C)C(O)(c1cncnc1)c1ccc(-c2ccc(C3(C#N)CC3)cc2F)cc1F (stereo not shown) [Compound 97],–,80 to 100%,80 to 100%
Cc1cc(OC(F)(F)F)ccc1-c1ccc(C(O)(c2cncnc2)C(C)(C)C)c(Cl)c1 (stereo not shown) [Compound 99],–,80 to 100%,80 to 100%
COc1ncncc1C(O)(c1ccc(-c2ccc(C3(C#N)CC3)cc2)cc1F)C(C)(C)C (stereo not shown) [Compound 100],–,80 to 100%,80 to 100%
CC(C)(C#N)c1ccc(-c2ccc(C(O)(c3cncnc3)C(C)(C)C)c(F)c2)c(F)c1 (stereo not shown) [Compound 101],–,80 to 100%,80 to 100%
CC(C)(C)C(O)(c1cncnc1)c1ccc(-c2ccc(OC(F)(F)F)cn2)cc1F (stereo not shown) [Compound 102],–,80 to 100%,80 to 100%
Cc1cc(-c2ccc(C3(C#N)CC3)cc2F)ccc1C(O)(c1cncnc1)C(C)(C)C (stereo not shown) [Compound 103],–,80 to 100%,80 to 100%
CC(C)(C)C(O)(c1cncnc1)c1ccc(-c2ccc(OC(F)(F)F)cc2F)cc1Cl (stereo not shown) [Compound 104],–,80 to 100%,80 to 100%
Cc1cc(C(C)(C)C#N)ccc1-c1ccc(C(O)(c2cncnc2)C(C)(C)C)c(F)c1 (stereo not shown) [Compound 105],–,80 to 100%,80 to 100%
CC(C)(C)C(O)(c1cncnc1)c1ccc(-c2ccc(C3(C#N)CC3)cc2F)cc1Cl (stereo not shown) [Compound 106],–,60 to 79%,80 to 100%

# Reference: US9957252B2, “Metalloenzyme inhibitor compounds as fungicides” (Dow AgroSciences LLC, priority 2014, dated 2018)
